Results reported in publication PMC7509987 (Biochemistry, 2020).
Read-outs that look alike come from different tables or passages of the source.

How the values were obtained:
mTrxR-CUG = mTrxR-CUG (Mus musculus, UniProt Q9JLT4); assay: Inhibition of Trx-reductase activity by electrophiles; type: biochemical
[1] = Solubility in aqueous solutions; type: physicochemical
mTrxR-C(αMe)UG [2] = biological target: mTrxR-C(αMe)UG (Mus musculus, UniProt Q9JLT4); assay: Inhibition of Trx-reductase activity by electrophiles; type: biochemical
DmTrxR-CCS [3] = biological target: T1, DmTrxR-CCS (Drosophila melanogaster, UniProt P91938); assay: as above; type: biochemical, D. melanogaster; details: 7 μM acrolein, pH 7, 10 min, 22 °C
Target sequence in this assay (P91938 1-491 isoform P91938-2): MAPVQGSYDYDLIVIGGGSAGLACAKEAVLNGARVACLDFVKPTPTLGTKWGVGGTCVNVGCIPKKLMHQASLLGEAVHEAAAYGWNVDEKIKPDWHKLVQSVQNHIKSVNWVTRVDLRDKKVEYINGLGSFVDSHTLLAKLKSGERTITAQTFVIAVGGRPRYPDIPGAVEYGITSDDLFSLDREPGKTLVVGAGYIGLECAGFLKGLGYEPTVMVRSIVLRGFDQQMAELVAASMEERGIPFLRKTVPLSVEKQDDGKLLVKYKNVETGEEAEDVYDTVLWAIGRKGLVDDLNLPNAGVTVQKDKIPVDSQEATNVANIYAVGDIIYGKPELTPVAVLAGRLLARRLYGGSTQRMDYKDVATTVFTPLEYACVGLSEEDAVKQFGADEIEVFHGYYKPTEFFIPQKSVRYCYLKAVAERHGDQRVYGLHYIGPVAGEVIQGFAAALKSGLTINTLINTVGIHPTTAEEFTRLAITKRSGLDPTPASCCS

DmTrxR-CCS [4] = biological target: T1, DmTrxR-CCS; assay: NADPH-pre-reduced enzyme; type: biochemical; details: n = 3
Target sequence in this assay (P91938 106-596): as the sequence (P91938 1-491 isoform P91938-2) above, with A2S, P3T, V4K, Q5G counted along it

mTrxR-C(αMe)UG [5] = type: biochemical; details: read-out: KM (μM), Table 3, DTNB as substrate; n = 3
mTrxR-C(αMe)UG [6] = type: biochemical; details: read-out: KM (μM), Table 4, selenocysteamine as substrate; n = 3
GPX = details: great excess of 4-hydroxynonenal (1 mM); cited from earlier work

mTrxR-CUG, sequence (Q9JLT4 35-524): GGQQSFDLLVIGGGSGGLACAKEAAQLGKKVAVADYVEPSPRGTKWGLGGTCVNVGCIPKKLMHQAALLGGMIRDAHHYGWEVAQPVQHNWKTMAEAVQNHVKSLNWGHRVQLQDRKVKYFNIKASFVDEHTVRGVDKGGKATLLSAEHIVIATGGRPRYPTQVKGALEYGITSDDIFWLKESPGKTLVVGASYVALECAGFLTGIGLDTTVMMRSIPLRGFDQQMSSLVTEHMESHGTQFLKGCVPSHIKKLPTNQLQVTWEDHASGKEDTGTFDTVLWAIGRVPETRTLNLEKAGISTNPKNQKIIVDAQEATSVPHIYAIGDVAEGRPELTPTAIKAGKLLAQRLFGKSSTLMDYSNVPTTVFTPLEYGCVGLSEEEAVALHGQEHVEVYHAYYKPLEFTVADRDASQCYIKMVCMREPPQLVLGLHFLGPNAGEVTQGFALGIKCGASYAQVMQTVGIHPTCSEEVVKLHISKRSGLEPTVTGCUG
mTrxR-C(αMe)UG (Mus musculus, UniProt Q9JLT4), sequence (Q9JLT4 35-524): as above

COc1cc(/C=C/C(=O)CC(=O)/C=C/c2ccc(O)c(OC)c2)ccc1O [Curcumin, curcumin]
IC50 (mTrxR-CUG): 34 µM
solubility [1]: ≤ 100 µM
Trx-reductase activity remains (mTrxR-C(αMe)UG [2]; at 100 uM curcumin, mutant mTrxR): ~ 65%

C=CC=O [Acrolein, acrolein]
inhibition of Trx-reductase activity (DmTrxR-CCS [3]): 75-85%
inhibition of Trx-reductase activity (mTrxR-CUG; 2.5 μM acrolein, pH 4.6, 10 min, 22 °C): 75-85%
inhibition of Trx-reductase activity (mTrxR-C(αMe)UG [2]; 800 nM acrolein, pH 5.5, 10 min, 22 °C): 75-85%

O=C/C=C/c1ccccc1 [Cinnamaldehyde]
IC50 (mTrxR-CUG): 225 µM
IC50 (mTrxR-C(αMe)UG [2]): 230 µM

C=CC=O [Acrolein, acrolein (prop-2-enal)]
IC50 (DmTrxR-CCS [4]): 7 µM

O=C(O)c1cc(SSc2ccc([N+](=O)[O-])c(C(=O)O)c2)ccc1[N+](=O)[O-] [DTNB, 5,5′-dithiobis(2-nitrobenzoic acid)]
Km (mTrxR-C(αMe)UG [5]): 5 ± 0.9 µM

NCC[Se][Se]CCN [selenocysteamine, selenocysteamine (diselenide, used as dichloride; selenocystamine)]
Km (mTrxR-C(αMe)UG [6]): 92 ± 0.9 µM

CCCCCC(O)/C=C/C=O (stereo not drawn) [4-Hydroxynonenal, 4-hydroxynonenal]
inhibition of GPX (GPX): could not be completely inhibited
